Patent US20180318355A1, “METHODS AND COMPOSITIONS FOR IMPROVED TISSUE REGENERATION BY SUPPRESION OF INTERFERIN-GAMMA AND TUMOR NECROSIS FACTOR-ALPHA” (Alfred E. Mann Institute for Biomedical Eng. at the …, priority 2011, published 2018)
Entries after “also recorded” stand apart in the source; their conditions may differ.

What was measured:
Fas = Fas internalization (immunocytochemical staining); format: cell-based, mouse; conditions: caspase inhibitor in IFN-γ/TNF-α-treated BMMSCs vs control group
Experimental: (§1) SiRNAs for Fas, TNFR2, IKK, FLIP and XIAP were used to treat the BMMSCs according to the manufacture's instruction, and IFN-γ and TNF-α were added for 24 hrs. Inhibitors for internalization (Latrunculin A, 0.2 μM), pan caspase (Z-VAD (OMe)-FMK, 50 μM), caspase 8 ([…], 20 μM) and caspase 3 (Z-DEVD-FMK, 20 µM) were used to treat the BMMSCs at 4 hrs before IFN-γ and TNF-α were added. Cell apoptosis were analysis by immunofluorescence staining and FACS^Calibur (Annexin V-PE apoptosis detection kit I) and Western blot analysis for caspase 8, cleaved caspase 8, caspase 3 and cleaved caspase 3.
Fas internalization. P1 BMMSCs were seeded to 2-well chamber slide. IFN-γ (50 ng/ml) was added to pre-treat BMMSCs for 24 hours, and then TNF-α (20 ng/ml) was added. At the 0.5, 1, 2, 4 hours after TNF-α was added, the cells were washed by PBS twice, and fixed with 4% PFA for 15 min. After treated by Triton-X 15 min, the cells were blocked with normal serum matched to secondary antibodies, incubated with 1 μg/ml anti-Fas (Santa Cruz) antibody at room temperature for 2 hours, treated with Rhodamin-conjugated secondary antibodies (1:200, Jackson ImmunoResearch). Then the cells were incubated with ([…] (1:40; Invitrogen) at room temperature for 20 min, and were mounted by vectashield mounting medium DAPI (Vector Laboratories).

BMMSCs [1] = assay: siRNA and inhibitors: IFN-γ/TNF-α-induced BMMSC death; format: cell-based, mouse; conditions: siRNA or inhibitor treatment before IFN-γ/TNF-α, toluidine blue staining
Experimental: as §1

[2] = test system: Fas, caspase 8, caspase 3; assay: Western blot of Fas, cleaved caspase 8 and cleaved caspase 3 in BMMSCs; format: cell-based, mouse
Experimental: Western blot analysis. Total protein was extracted using M-PER mammalian protein extraction reagent (Thermo, Rockford, Ill.). Nuclear protein was obtained using NE-PER nuclear and cytoplasmic extraction reagent (Thermo). Protein was applied and separated on 4-12% NuPAGE gel (Invitrogen) and transferred to Immobilon™-P membranes (Millipore). The membranes were blocked with 5% non-fat dry milk and 0.1% tween-20 for 1 hour, followed by incubation with the primary antibodies (1:20¬1000 dilution) at 4° C. overnight. Horseradish peroxidase-conjugated IgG (Santa Cruz Biosciences; 1:10,000) was used to treat the membranes for 1 hour, and enhanced with a SuperSignal® West Pico Chemiluminescent Substrate (Thermo). The bands were detected on BIOMAX MR films (Kodak, Rochester, N.Y.). Each membrane was also stripped using a stripping buffer (Thermo) and reprobed with anti-β-actin antibody to quantify the amount of loaded protein.
as §1

GFP^+ BMMSCs = assay: Cell survival assay, subcutaneous GFP+ BMMSC implantation; format: in vivo, mice
Experimental: Cell survival assay. 4×10^6 BMMSCs isolated from C57BL/6-Tg (CAG-EGFP)1Osb/J mice were combined with different concentrations of IFN-γ (0, 20, 50, 100, 200 ng/ml) and TNF-α (0, 20, 50, 100, 200 ng/ml) and subcutaneously transplanted into immunocompromised mice, hydrogel was used as a slowly released carrier. Thirty days after translation, the implants were harvested and digested in a solution of 3 mg/mL collagenase type I (Worthington Biochem) and 4 mg/mL dispase (Roche) for 1 h at 37° C. Single-cell suspensions were obtained by passing the cells through a 70 μm strainer (BD Bioscience). 1.0-1.5×10^6 BMMSCs were seeded into 100 mm culture dishes (Corning) and incubated for 48 hours under 37° C. at 5% CO2 condition. To eliminate the non-adherent cells, the cultures were washed with PBS twice. The attached cells were cultured for 10 days with alpha minimum essential medium (α-MEM, Invitrogen) supplemented with 20% FBS, 2 mM L-glutamine (Invitrogen), 55 μM 2-mercaptoethanol (Invitrogen), 100 U/ml penicillin, and 100 μg/ml streptomycin (Invitrogen). The numbers of GFP positive cells were counted under fluorescent microscopy.

[3] = test system: BMMSC-mediated bone formation; assay: BMMSC-mediated bone formation, subcutaneous BMMSC/HA/TCP implantation; format: in vivo; conditions: immunocompromised mice
Experimental: BMMSC-mediated bone formation. Approximately 4.0×10^6 BMMSCs were mixed with hydroxyapatite/tricalcium phosphate (HA/TCP) ceramic particles (40 mg, Zimmer Inc., Warsaw, Ind.) as a carrier and subcutaneously implanted into the dorsal surface of 8-10 weeks old immunocompromised mice or C57BL/6J mice. At eight weeks post-implantation, the implants were harvested, fixed in 4% paraformaldehyde and then decalcified with 5% EDTA (pH 7.4), followed by paraffin embedding. The 6 μm paraffin sections were stained with hematoxylin and eosin (H&E) and analyzed by an NIH Image J. Five fields were selected and newly formed mineralized tissue area in each field was calculated and shown as a percentage to total tissue area.
Cytokines in BMMSC-mediated bone formation. Approximately 4.0×10^6 of littermate-derived or autologous BMMSCs were mixed with HA/TCP ceramic powders (40 mg, Zimmer Inc.), and hydrogel (Glycosan Biosysterms, Salt Lake City, Utah) with 200 ng IFN-γ, TNF-α, IL-4, IL-6 or IL-17A were covered on the surface of the implants as a slow released system. At eight weeks post-implantation, the implants were harvested and newly formed mineralized tissue areas were analyzed. […]
BMMSC-mediated bone formation. Approximately 4.0×10^6 of littermate-derived or autologous BMMSCs were mixed with hydroxyapatite/tricalcium phosphate (HA/TCP) ceramic particles (40 mg, Zimmer Inc., Warsaw, Ind.) as a carrier and subcutaneously implanted into the dorsal surface of 8-10 weeks old immunocompromised mice or C57BL6 mice. When aspirin was used, BMMSCs were treated with 50 μg/ml aspirin for 2 days and mixed with HA/TCP particles to be subcutaneously implanted into immunocompromised mice. When IFN-γ and TNF-α were used in the subcutaneous implants, 200 ng IFN-γ, TNF-α or/and 100 μg aspirin mixed with 250 μl hydrogel as a slow released system and subcutaneously co-implanted to the dorsal surface of 8-10 weeks old immunocompromised mice.
At eight weeks post-implantation, the implants were harvested, fixed in 4% paraformaldehyde and then decalcified with 5% EDTA (pH 7.4), followed by paraffin embedding. The 6 μm paraffin sections were stained with hematoxylin and eosin (H&E) and analyzed by an NIH Image J. Five fields were selected and newly formed mineralized tissue area in each field was calculated and shown as a percentage to total tissue area.

BMMSCs [4] = assay: Cell apoptosis and cell survival assay in vitro (toluidine blue, Annexin V); conditions: TNF-α 0, 5, 50, 100 ng/ml, flow cytometric analysis
Experimental: Cell apoptosis and cell survival assay. 0.5×10^6 BMMSCs were seeded to 6-well culture plate and co-cultured with different doses of recombined IL-4, IL-6, IL-17A, TGF-β1, TNF-α and IFN-γ (0, 10, 20, 50, 100, 200 ng/ml) for 3 days. To measure the cell viability, the total cells were analyzed by using a cell counting kit-8 (Dojindo Molecular Technoloies, Gaithersburg, Md.) according to the manufacture's instruction. And the culture plates with cells were stained with 2% toluidine blue O and 2% paraformaldehyde (Sigma-Aldrich Corporate, St. Louis, Mo.).
For cell apoptosis analysis, the BMMSCs were stained by Annexin V-PE apoptosis detection kit I (BD Bioscience) following manufacture's protocol, and analyzed by FACS^Calibur (BD Bioscience).
IFN-γ and TNF-α synergism for apoptosis. For cell apoptosis staining, the 1×10^4 BMMSCs were seeded onto two chambers slide, IFN-γ (50 ng/ml) and TNF-α (20 ng/ml) were used to treat the BMMSCs for 24 hrs either separately or combined, Annexin V-PE apoptosis detection kit I (BD Bioscience) was used to stain the BMMSCs following manufacture's protocol, and analyzed on microscopy and FACS^Calibur (BD Bioscience). Cell viability was analyzed by using cell counting kit, and culture plates were stained with 2% toluidine blue O and 2% paraformaldehyde.
IFN-γ and TNF-α synergism for apoptosis. 0.5×10^6 BMMSCs were seeded to 6-well culture plate and co-cultured with different doses of TNF-α (0, 5, 50, 100 ng/ml) with or without IFN-γ (50 ng/ml) for I day. Then, the BMMSCs were stained by Annexin V-PE apoptosis detection kit I (BD Bioscience) following manufacture's protocol, and analyzed by FACS^Calibur (BD Bioscience).

calvarial bone defects = assay: Calvarial bone defect repair by BMMSC/gelfoam implantation; format: in vivo, C57BL/6J mice
Experimental: Calvarial bone defect model in C57BL/6J mice. The skin of C57BL/6J mice was cut and periosteum was elevated. The surface of mouse cavarial bone was exposed, and oversize bone defects of 7 mm×8 mm were established. The bone defect was larger than usually critical size with diameter of 4 mm.
Implantation of BMMSCs to calvarial bone defects in C57BL/6J mice. 4×10^6 BMMSCs were seeded to a size of 7 mm×8 mm gelfoam (Pharmaca, Boulder, Colo.) and cultured for 3 days in vitro. The gelfoam with BMMSCs was placed to the calvarial bone defects and covered completely by skins. For aspirin treated group, the BMMSCs seeded on gelfoam were pretreated with 50 μg/ml aspirin for 3 days, then placed to the calvarial bone defect. Another gelfoam with 100 μg aspirin as a releasing system was covered on the surface of the gelfoam with BMMSCs (FIG. 14).

TNF-α = assay: ELISA of TNF-α level in BMMSC implants; format: in vivo, mice; conditions: aspirin treatment vs untreated control, 2 to 14 days post implantation
Excerpt: (§2) Kits. Pan T cell isolation kit II and CD4^+CD25^+ regulatory T Cell isolation kit were purchased from Miltenyi Biotec (Bergisch Gladbach, Germany). Mouse IFN-γ, TNF-α, IL-6, IL-17A, IL-4 and IL-10 ELISA Ready-SET-GO kits were purchased from eBioscience (San Diego, Calif.). siRNA kits for Fas, Smad 6, TNFR2, IKK, FLIP and XIAP were purchased from Santa Cruz Biosciences (Santa Cruz, Calif.).

[5] = test system: osteoclastogenesis, osteogenesis; conditions: literature (13-15); cited from earlier work
IFN-γ = assay: ELISA of IFN-γ level in BMMSC implants; format: in vivo, mice; conditions: aspirin treatment vs untreated control, 2 to 14 days post implantation
Excerpt: as §2

IL-10 = assay: ELISA of IL-10 level in BMMSC implants; format: in vivo, mice; conditions: aspirin treatment vs untreated control, 2 to 14 days post implantation
Excerpt: as §2

TNF-α positive cells = assay: Immunohistochemical staining of TNF-α positive cells in BMMSC implants; format: in vivo; conditions: aspirin treated vs untreated control, C57BL6 mice
Experimental: (§3) Immunofluorescent and immunochemical microscopy. The transplants were harvested, fixed in 4% paraformaldehyde and then decalcified with 5% ethylenediaminetetraacetic acid (EDTA, pH 7.4), followed by paraffin or optimal cutting temperature compound (OCT, Sakura Fineteck Inc., Torrance, Calif.) embedding. The paraffin or frozen sections were blocked with normal serum matched to secondary antibodies, incubated with the specific or isotype-matched mouse antibodies (1:200) overnight at 4° C. For immunofluorescent staining, the samples were treated with Rhodamin/FITC-conjugated secondary antibodies (1:200, Jackson ImmunoResearch, West Grove, Pa.; Southern Biotechnology, Birmingham, Ala.), and were mounted by means of a vectashield mounting medium containing 4′,6-diamidino-2-phenylindole (DAPI) (Vector Laboratories, Burlingame, Calif.). For immunochemical staining, the samples were stained by using Zymed SuperPicture™ Kit (Invitrogen Corporation) according to the manufacturer's instruction.
(§4) Immunochemical microscopy. The transplants were harvested, fixed in 4% paraformaldehyde and then decalcified with 5% ethylenediaminetetraacetic acid (EDTA, pH 7.4), followed by paraffin or optimal cutting temperature compound (OCT, Sakura Fineteck Inc., Torrance, Calif.) embedding. […]

IFN-γ positive cells = assay: Immunohistochemical staining of IFN-γ positive cells in BMMSC implants; format: in vivo; conditions: aspirin treated vs untreated control, C57BL6 mice
Experimental: as §3, §4

[6] = siRNA or inhibitor treatment before IFN-γ/TNF-α
[7] = wild type BMMSCs, IFN-γ 50 ng/ml, TNF-α 20 ng/ml, alone or co-stimulated

COC(=O)CC[C@H](NC(=O)[C@H](CC(=O)OC)NC(=O)OCc1ccccc1)C(=O)N[C@H](C(=O)N[C@@H](CC(=O)OC)C(=O)CF)C(C)C [Caspase 3 inhibitor, Z-DEVD-FMK]
number of BMMSCs with Fas internalization (Fas): reduced number of Fas internalization
IFN-γ/TNF-α-induced BMMSC death (BMMSCs [1]): rescuing IFN-γ/TNF-α-induced BMMSC death
cleaved caspase 3 in IFN-γ/TNF-α-treated BMMSCs [2, 6]: partially inhibition
cleaved caspase 8 in IFN-γ/TNF-α-treated BMMSCs [2, 6]: no inhibitive effect

TNF-α
numbers of surviving BMMSCs in implants (GFP^+ BMMSCs; TNF-α 50 ng/ml, immunocompromised mice, 30 days post implantation, vs untreated control): marked reduction in the numbers of survived BMMSCs; also recorded: significant reduction in the numbers of surviving cells
new bone formation in BMMSC implants ([3]; 200 ng cytokine in hydrogel co-implanted with BMMSCs/HA/TCP, 8 weeks post implantation): very limited bone formation; also recorded: inhibited subcutaneous bone formation; also recorded: reduced BMMSC-mediated bone formation; also recorded: significantly reduced bone formation
Fas expression [2, 7]: slightly increase
activation of caspase 3 and caspase 8 [2, 7]: slightly increase
BMMSC apoptosis (BMMSCs [4]): dose-dependent BMMSC apoptosis

CC(=O)Oc1ccccc1C(=O)O [aspirin]
repair of 7×8 mm calvarial bone defects (calvarial bone defects; BMMSCs cultured with 50 μg/ml aspirin, gelfoam containing 100 μg aspirin, 12 weeks, microQCT, vs BMMSC/gelfoam): completely repaired; also recorded: significantly improves BMMSC-based calvarial defect repairing; also recorded: marked improvement in repairing calvarial defects
structure of regenerated tissues versus normal calvarial tissues (calvarial bone defects; BMMSCs with gelfoam containing aspirin (100 μg)): analogous to normal calvarial tissues
level of TNF-α in BMMSC implants (TNF-α): reduces; also recorded: suppressed
osteoclastogenesis [5]: inhibits osteoclastogenesis
osteogenesis [5]: improves osteogenesis
numbers of surviving GFP positive BMMSCs in implants (GFP^+ BMMSCs; 50 μg/ml aspirin pre-treated 2 days, 100 μg aspirin co-implanted, 4 to 30 days post implantation): significantly increased numbers of survival cells; also recorded: significant increase in survival of BMMSCs
level of IFN-γ in BMMSC implants (IFN-γ): reduces; also recorded: suppressed
level of IL-10 in BMMSC implants (IL-10): not and without affecting
BMMSC-mediated bone formation suppressed by IFN-γ or TNF-α ([3]; 200 ng IFN-γ or TNF-α co-implanted, 50 μg/ml aspirin pre-treatment and 100 μg aspirin co-implanted): significant rescuing of BMMSC-mediated bone formation; also recorded: restored bone formation
amount of new bone formation ([3]; BMMSCs treated with 50 μg/ml aspirin for 2 days, HA/TCP, vs untreated control): increased
TNF-α positive cells in BMMSC implants (TNF-α positive cells): significantly decreased; also recorded: suppressive effect
IFN-γ positive cells in BMMSC implants (IFN-γ positive cells): significantly decreased; also recorded: suppressive effect
